Assay [1] concerns the target T1, cGMP-dependent protein kinase 1 (Homo sapiens) (UniProt Q13976).
T1 sequence (whole entry): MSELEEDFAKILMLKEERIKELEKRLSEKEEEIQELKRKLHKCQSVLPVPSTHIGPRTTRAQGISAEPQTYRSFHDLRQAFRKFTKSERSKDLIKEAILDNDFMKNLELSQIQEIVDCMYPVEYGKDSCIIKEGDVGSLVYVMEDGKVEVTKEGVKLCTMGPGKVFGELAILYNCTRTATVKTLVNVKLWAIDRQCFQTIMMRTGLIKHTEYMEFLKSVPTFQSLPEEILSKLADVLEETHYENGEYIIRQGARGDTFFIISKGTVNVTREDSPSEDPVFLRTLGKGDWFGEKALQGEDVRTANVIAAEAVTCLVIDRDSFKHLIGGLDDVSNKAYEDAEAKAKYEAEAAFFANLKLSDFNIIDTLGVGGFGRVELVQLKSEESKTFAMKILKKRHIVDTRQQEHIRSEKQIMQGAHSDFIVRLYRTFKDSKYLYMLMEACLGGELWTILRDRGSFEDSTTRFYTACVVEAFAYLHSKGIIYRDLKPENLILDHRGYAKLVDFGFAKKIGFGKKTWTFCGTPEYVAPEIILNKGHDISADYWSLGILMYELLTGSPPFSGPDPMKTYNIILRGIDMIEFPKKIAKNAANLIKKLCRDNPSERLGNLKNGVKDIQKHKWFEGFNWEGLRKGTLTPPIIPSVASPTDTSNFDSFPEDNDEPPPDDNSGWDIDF
Kind of assay: Selectivity interaction (KinomeScan (DiscoverX)) EUB0001049a PRKG1. Conditions: at 1 µM.

Assay [2] deals with T2, Serine/threonine-protein kinase ULK1 (Homo sapiens) (UniProt O75385).
T2 sequence (whole entry): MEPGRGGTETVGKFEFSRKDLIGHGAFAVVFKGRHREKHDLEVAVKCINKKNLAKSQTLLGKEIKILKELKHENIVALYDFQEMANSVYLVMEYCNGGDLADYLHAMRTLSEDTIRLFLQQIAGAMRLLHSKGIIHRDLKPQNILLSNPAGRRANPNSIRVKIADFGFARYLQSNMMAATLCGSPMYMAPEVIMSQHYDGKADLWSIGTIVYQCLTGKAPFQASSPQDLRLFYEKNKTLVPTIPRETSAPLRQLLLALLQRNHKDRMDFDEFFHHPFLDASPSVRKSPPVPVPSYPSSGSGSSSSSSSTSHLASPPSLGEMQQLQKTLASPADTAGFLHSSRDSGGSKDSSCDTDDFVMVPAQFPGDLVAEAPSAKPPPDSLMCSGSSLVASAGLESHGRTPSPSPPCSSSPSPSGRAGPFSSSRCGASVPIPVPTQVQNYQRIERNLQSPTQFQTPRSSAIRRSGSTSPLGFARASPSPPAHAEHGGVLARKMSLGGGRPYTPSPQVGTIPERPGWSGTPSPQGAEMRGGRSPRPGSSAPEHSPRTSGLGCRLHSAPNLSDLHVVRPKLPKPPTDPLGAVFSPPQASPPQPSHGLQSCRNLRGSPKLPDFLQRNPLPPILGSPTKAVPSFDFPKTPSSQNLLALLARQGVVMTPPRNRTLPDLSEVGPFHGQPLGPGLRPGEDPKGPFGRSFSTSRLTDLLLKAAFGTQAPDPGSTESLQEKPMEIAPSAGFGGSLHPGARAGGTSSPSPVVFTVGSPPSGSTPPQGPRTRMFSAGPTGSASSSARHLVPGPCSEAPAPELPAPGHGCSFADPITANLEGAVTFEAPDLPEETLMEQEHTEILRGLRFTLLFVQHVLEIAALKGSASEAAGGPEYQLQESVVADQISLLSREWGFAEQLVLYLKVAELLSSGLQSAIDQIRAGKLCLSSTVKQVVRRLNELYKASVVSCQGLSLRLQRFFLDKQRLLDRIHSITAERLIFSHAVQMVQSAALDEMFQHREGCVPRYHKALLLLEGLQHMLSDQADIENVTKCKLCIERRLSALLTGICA
Kind of assay: Selectivity interaction (KinomeScan (DiscoverX)) EUB0000695a ULK1. The following applies: at 100 nM.

In assay [3] the target is Dual specificity testis-specific protein kinase 1 (Homo sapiens) (UniProt Q15569). Kind of assay: Selectivity interaction (KinomeScan (DiscoverX)) EUB0000695a TESK1. Conditions: at 100 nM.
Assay [4] concerns the target Serine/threonine-protein kinase pim-3 (Homo sapiens) (UniProt Q86V86). Kind of assay: Selectivity interaction (KinomeScan (DiscoverX)) EUB0000045b PIM3.
The target in assay [5] is T3, Phosphatidylinositol 4,5-bisphosphate 3-kinase catalytic subunit delta isoform (Homo sapiens) (UniProt O00329).
T3 sequence (whole entry): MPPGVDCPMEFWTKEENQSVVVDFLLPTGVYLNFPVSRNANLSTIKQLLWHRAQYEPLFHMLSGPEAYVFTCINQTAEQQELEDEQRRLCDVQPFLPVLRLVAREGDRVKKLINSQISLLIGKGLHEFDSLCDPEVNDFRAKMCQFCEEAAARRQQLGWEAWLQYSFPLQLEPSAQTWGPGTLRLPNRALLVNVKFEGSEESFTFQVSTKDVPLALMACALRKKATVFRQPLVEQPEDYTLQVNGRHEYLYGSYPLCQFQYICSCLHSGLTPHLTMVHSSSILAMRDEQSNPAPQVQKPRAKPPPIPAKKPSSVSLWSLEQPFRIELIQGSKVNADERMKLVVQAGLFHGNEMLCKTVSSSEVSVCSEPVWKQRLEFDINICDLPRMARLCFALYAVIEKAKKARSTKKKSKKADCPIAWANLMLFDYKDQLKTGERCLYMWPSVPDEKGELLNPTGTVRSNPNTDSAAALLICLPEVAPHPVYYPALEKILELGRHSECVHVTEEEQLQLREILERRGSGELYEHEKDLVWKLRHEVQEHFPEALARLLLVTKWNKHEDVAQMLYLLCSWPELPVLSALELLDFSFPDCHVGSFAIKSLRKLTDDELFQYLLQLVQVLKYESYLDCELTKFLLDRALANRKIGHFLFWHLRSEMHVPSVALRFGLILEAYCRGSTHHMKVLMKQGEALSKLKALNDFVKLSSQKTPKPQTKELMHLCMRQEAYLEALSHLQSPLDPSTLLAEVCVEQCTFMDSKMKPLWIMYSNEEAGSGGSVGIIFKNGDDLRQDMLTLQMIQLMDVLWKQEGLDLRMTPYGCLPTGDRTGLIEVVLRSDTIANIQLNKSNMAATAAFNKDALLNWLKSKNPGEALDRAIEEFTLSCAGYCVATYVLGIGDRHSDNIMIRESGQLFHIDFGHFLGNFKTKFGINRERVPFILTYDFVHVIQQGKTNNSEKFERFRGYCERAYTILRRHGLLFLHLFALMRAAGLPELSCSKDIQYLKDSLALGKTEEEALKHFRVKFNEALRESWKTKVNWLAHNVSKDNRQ
Kind of assay: Selectivity interaction (ActivX KiNativ screen (kinase selectivity in THP-1 cell lysates)) EUB0000639a PIK3CD. In kind it is subcellular. The following applies: lysate, at 0.01 µM.

Assay [6] concerns the target Bone morphogenetic protein receptor type-1A (Homo sapiens, UniProt P36894). Kind of assay: Selectivity interaction (KinomeScan (DiscoverX)) EUB0000618a BMPR1A. Conditions: at 10 µM.

Dual specificity testis-specific protein kinase 1 (Homo sapiens), sequence (Q15569 whole entry, looked up): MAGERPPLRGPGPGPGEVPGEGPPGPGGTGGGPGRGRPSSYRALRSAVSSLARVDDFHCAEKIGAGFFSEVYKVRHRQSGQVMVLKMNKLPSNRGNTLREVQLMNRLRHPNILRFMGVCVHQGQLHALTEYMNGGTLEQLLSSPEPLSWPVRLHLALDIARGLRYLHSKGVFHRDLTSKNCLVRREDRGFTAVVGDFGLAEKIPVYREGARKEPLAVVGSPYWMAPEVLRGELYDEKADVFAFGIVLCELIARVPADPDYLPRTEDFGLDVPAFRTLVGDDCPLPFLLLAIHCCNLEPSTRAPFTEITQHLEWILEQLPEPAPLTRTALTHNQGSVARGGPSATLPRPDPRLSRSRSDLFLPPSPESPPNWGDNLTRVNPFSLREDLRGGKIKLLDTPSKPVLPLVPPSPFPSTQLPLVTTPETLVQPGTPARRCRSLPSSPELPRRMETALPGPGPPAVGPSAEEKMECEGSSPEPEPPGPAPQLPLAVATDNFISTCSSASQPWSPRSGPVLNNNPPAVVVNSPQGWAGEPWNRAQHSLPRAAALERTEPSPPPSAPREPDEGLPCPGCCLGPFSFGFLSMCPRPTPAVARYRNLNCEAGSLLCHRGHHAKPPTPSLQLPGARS
Bone morphogenetic protein receptor type-1A, sequence (P36894 whole entry): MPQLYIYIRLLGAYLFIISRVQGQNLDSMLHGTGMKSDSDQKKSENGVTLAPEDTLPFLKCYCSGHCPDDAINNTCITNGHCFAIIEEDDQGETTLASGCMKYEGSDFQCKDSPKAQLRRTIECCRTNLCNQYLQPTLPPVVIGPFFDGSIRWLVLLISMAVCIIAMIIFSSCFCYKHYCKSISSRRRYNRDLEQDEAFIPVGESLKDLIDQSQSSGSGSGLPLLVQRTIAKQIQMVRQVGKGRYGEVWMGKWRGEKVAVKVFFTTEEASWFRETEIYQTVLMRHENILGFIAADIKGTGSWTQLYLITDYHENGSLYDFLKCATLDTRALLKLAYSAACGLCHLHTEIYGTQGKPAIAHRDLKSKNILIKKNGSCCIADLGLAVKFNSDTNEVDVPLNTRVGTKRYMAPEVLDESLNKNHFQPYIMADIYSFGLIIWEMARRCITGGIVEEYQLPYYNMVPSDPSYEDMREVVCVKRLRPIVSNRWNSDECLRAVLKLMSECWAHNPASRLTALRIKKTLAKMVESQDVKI

In turn, `COc1cc(Nc2nc(C)cc(-c3cnn4nc(OC)ccc34)n2)cc(C(F)(F)F)c1` displayed a % of control in assay [1] of 92%.

Consider `Cc1cc(F)c(C(=O)Nc2cccc(-c3nncn3C(C)C)n2)cc1-n1cnc(C2CC2)c1`, for which the figures for the % of control in assay [2] and in assay [3] were 100% and 85%, respectively.

Regarding `C=CC(=O)Nc1cc(-n2c(=O)ccc3cnc4ccc(-c5ccc(NS(C)(=O)=O)cc5)cc4c32)ccc1C`, the % of control came to 83% in assay [4] (at 1 µM) and 82% in assay [4] (at 10 µM). Consider `CC[C@@H]1[C@H](F)C(=O)N[C@@H]1COc1nccc2cc(C(N)=O)c(OC)cc12` [ZIMLOVISERTIB], for which the % of inhibition in assay [5] is -9.6%. With `O[C@H]1CC[C@H](Nc2ncc3nc(Nc4c(F)cc(F)cc4F)n([C@H]4CCOC4)c3n2)CC1`, in assay [6], the % of control amounted to 100%.

(Values after ChEMBL document CHEMBL5465560, “Selectivity Literature for EUbOPEN Chemogenomic Library” (2024).)
